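48-hour exposure; five concentrations; linearly interpolated endpoints. TGI: total growth inhibition.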
Assays:
Assay in all cases: NCI-60 cell line screen, 48 h
786-0 renal = test system: 786-0 renal
A498 renal = test system: A498 renal
A549 NSCLC = test system: A549 NSCLC
ACHN renal = test system: ACHN renal
CAKI-1 renal = test system: CAKI-1 renal
CCRF-CEM leukemia = test system: CCRF-CEM leukemia
COLO 205 colon = test system: COLO 205 colon
DU-145 prostate = test system: DU-145 prostate
EKVX NSCLC = test system: EKVX NSCLC
HCC-2998 colon = test system: HCC-2998 colon
HCT-116 colon = test system: HCT-116 colon
HCT-15 colon = test system: HCT-15 colon
HL-60(TB) leukemia = test system: HL-60(TB) leukemia
HOP-62 NSCLC = test system: HOP-62 NSCLC
HT29 colon = test system: HT29 colon
IGROV1 ovarian = test system: IGROV1 ovarian
K-562 leukemia = test system: K-562 leukemia
KM12 colon = test system: KM12 colon
LOX IMVI melanoma = test system: LOX IMVI melanoma
M14 melanoma = test system: M14 melanoma
MALME-3M melanoma = test system: MALME-3M melanoma
MCF7 breast = test system: MCF7 breast
MDA-MB-231 breast = test system: MDA-MB-231 breast
MDA-MB-435 = test system: MDA-MB-435
MDA-N = test system: MDA-N
MOLT-4 leukemia = test system: MOLT-4 leukemia
NCI-H226 lung = test system: NCI-H226 lung
NCI-H23 lung = test system: NCI-H23 lung
NCI-H460 lung = test system: NCI-H460 lung
NCI-H522 lung = test system: NCI-H522 lung
NCI/ADR-RES ovarian = test system: NCI/ADR-RES ovarian
OVCAR-3 ovarian = test system: OVCAR-3 ovarian
OVCAR-4 ovarian = test system: OVCAR-4 ovarian
OVCAR-5 ovarian = test system: OVCAR-5 ovarian
OVCAR-8 ovarian = test system: OVCAR-8 ovarian
PC-3 prostate = test system: PC-3 prostate
RXF 393 renal = test system: RXF 393 renal
SF-268 CNS = test system: SF-268 CNS
SF-295 CNS = test system: SF-295 CNS
SF-539 CNS = test system: SF-539 CNS
SK-MEL-2 melanoma = test system: SK-MEL-2 melanoma
SK-MEL-28 melanoma = test system: SK-MEL-28 melanoma
SK-MEL-5 melanoma = test system: SK-MEL-5 melanoma
SK-OV-3 ovarian = test system: SK-OV-3 ovarian
SN12C renal = test system: SN12C renal
SNB-19 CNS = test system: SNB-19 CNS
SNB-75 CNS = test system: SNB-75 CNS
SR leukemia = test system: SR leukemia
SW-620 colon = test system: SW-620 colon
T-47D breast = test system: T-47D breast
TK-10 renal = test system: TK-10 renal
U251 CNS = test system: U251 CNS
UACC-257 melanoma = test system: UACC-257 melanoma
UACC-62 melanoma = test system: UACC-62 melanoma
UO-31 renal = test system: UO-31 renal
HS 578T breast = test system: HS 578T breast
RPMI-8226 leukemia = test system: RPMI-8226 leukemia

Structure (SMILES): COc1ccc(-c2c3c(n(C4OC(COC(C)=O)C(OC(C)=O)C(OC(C)=O)C4OC(C)=O)c(=S)c2C#N)CCCC3)cc1 (configuration not stated)
- TGI (786-0 renal): > 100 µM
- TGI (A498 renal): 90 µM
- TGI (A549 NSCLC): > 100 µM
- TGI (ACHN renal): > 100 µM
- TGI (CAKI-1 renal): 79.9 µM
- TGI (CCRF-CEM leukemia): > 100 µM
- TGI (COLO 205 colon): > 100 µM
- TGI (DU-145 prostate): > 100 µM
- TGI (EKVX NSCLC): > 100 µM
- TGI (HCC-2998 colon): > 100 µM
- TGI (HCT-116 colon): > 100 µM
- TGI (HCT-15 colon): > 100 µM
- TGI (HL-60(TB) leukemia): > 100 µM
- TGI (HOP-62 NSCLC): > 100 µM
- TGI (HT29 colon): > 100 µM
- TGI (IGROV1 ovarian): > 100 µM
- TGI (K-562 leukemia): > 100 µM
- TGI (KM12 colon): > 100 µM
- TGI (LOX IMVI melanoma): > 100 µM
- TGI (M14 melanoma): > 100 µM
- TGI (MALME-3M melanoma): > 100 µM
- TGI (MCF7 breast): > 100 µM
- TGI (MDA-MB-231 breast): > 100 µM
- TGI (MDA-MB-435): > 100 µM
- TGI (MDA-N): > 100 µM
- TGI (MOLT-4 leukemia): > 100 µM
- TGI (NCI-H226 lung): > 100 µM
- TGI (NCI-H23 lung): > 100 µM
- TGI (NCI-H460 lung): > 100 µM
- TGI (NCI-H522 lung): > 100 µM
- TGI (NCI/ADR-RES ovarian): > 100 µM
- TGI (OVCAR-3 ovarian): 92.6 µM
- TGI (OVCAR-4 ovarian): 98.9 µM
- TGI (OVCAR-5 ovarian): > 100 µM
- TGI (OVCAR-8 ovarian): > 100 µM
- TGI (PC-3 prostate): 66.7 µM
- TGI (RXF 393 renal): 88.7 µM
- TGI (SF-268 CNS): > 100 µM
- TGI (SF-295 CNS): > 100 µM
- TGI (SF-539 CNS): > 100 µM
- TGI (SK-MEL-2 melanoma): 72.5 µM
- TGI (SK-MEL-28 melanoma): > 100 µM
- TGI (SK-MEL-5 melanoma): > 100 µM
- TGI (SK-OV-3 ovarian): > 100 µM
- TGI (SN12C renal): > 100 µM
- TGI (SNB-19 CNS): > 100 µM
- TGI (SNB-75 CNS): 94 µM
- TGI (SR leukemia): > 100 µM
- TGI (SW-620 colon): > 100 µM
- TGI (T-47D breast): > 100 µM
- TGI (TK-10 renal): > 100 µM
- TGI (U251 CNS): > 100 µM
- TGI (UACC-257 melanoma): > 100 µM
- TGI (UACC-62 melanoma): > 100 µM
- TGI (UO-31 renal): > 100 µM

Structure (SMILES): O=C1OCC(CN2CCC(n3c(=O)[nH]c4ccccc43)CC2)=C1c1ccccc1
- TGI (786-0 renal): 82.5 µM
- TGI (A498 renal): 68.6 µM
- TGI (A549 NSCLC): > 100 µM
- TGI (ACHN renal): 89.6 µM
- TGI (CAKI-1 renal): 51.4 µM
- TGI (CCRF-CEM leukemia): 60.5 µM
- TGI (COLO 205 colon): 28.1 µM
- TGI (DU-145 prostate): 71.7 µM
- TGI (EKVX NSCLC): 57.1 µM
- TGI (HCC-2998 colon): 77.2 µM
- TGI (HCT-116 colon): 92.7 µM
- TGI (HCT-15 colon): 54.9 µM
- TGI (HL-60(TB) leukemia): 40.7 µM
- TGI (HOP-62 NSCLC): 64.5 µM
- TGI (HS 578T breast): 60.4 µM
- TGI (HT29 colon): 58.6 µM
- TGI (IGROV1 ovarian): 51.1 µM
- TGI (K-562 leukemia): > 100 µM
- TGI (KM12 colon): 31.2 µM
- TGI (LOX IMVI melanoma): 56.2 µM
- TGI (M14 melanoma): 33.4 µM
- TGI (MALME-3M melanoma): 56.6 µM
- TGI (MCF7 breast): 96.4 µM
- TGI (MDA-MB-231 breast): 79.3 µM
- TGI (MDA-MB-435): 62.4 µM
- TGI (MDA-N): 78.7 µM
- TGI (MOLT-4 leukemia): 60 µM
- TGI (NCI-H226 lung): 76.7 µM
- TGI (NCI-H23 lung): 52.2 µM
- TGI (NCI-H460 lung): 21.2 µM
- TGI (NCI-H522 lung): 46.5 µM
- TGI (NCI/ADR-RES ovarian): 59.6 µM
- TGI (OVCAR-3 ovarian): 60.6 µM
- TGI (OVCAR-4 ovarian): 39.6 µM
- TGI (OVCAR-5 ovarian): > 100 µM
- TGI (OVCAR-8 ovarian): 31.6 µM
- TGI (PC-3 prostate): 41.6 µM
- TGI (RPMI-8226 leukemia): 56.1 µM
- TGI (RXF 393 renal): > 100 µM
- TGI (SF-268 CNS): 95.5 µM
- TGI (SF-295 CNS): 72.6 µM
- TGI (SF-539 CNS): 35.6 µM
- TGI (SK-MEL-2 melanoma): 38.1 µM
- TGI (SK-MEL-28 melanoma): 61 µM
- TGI (SK-MEL-5 melanoma): 28.9 µM
- TGI (SK-OV-3 ovarian): 94.2 µM
- TGI (SN12C renal): 53.1 µM
- TGI (SNB-19 CNS): 67.3 µM
- TGI (SNB-75 CNS): 72.4 µM
- TGI (SR leukemia): 82.5 µM
- TGI (SW-620 colon): > 100 µM
- TGI (T-47D breast): 24.6 µM
- TGI (TK-10 renal): 63.1 µM
- TGI (U251 CNS): > 100 µM
- TGI (UACC-257 melanoma): 47.3 µM
- TGI (UACC-62 melanoma): 26.9 µM
- TGI (UO-31 renal): 35.2 µM
